From article PMC7503225, “Repositioning Dequalinium as Potent Muscarinic Allosteric Ligand by Combining Virtual Screening Campaigns and Experimental Binding Assays” (International Journal of Molecular Sciences, 2020)

Legend:
[1] = ref DrugBank [16]; cited from earlier work
hM5 muscarinic receptor = target: T1, hM5 muscarinic receptor (Homo sapiens, UniProt P08912); assay: Equilibrium inhibition binding with [3H]-NMS, CHO cell membranes; settings: [3H]-NMS 0.2 nM, CHO membranes, mean ± SEM of 3-4 experiments; read-out: pKi hM5 (converted)
T1 construct: expressed in transfected cells; host or cells: CHO cells, stably transfected; membrane fractions
T1 sequence (P08912 1-532): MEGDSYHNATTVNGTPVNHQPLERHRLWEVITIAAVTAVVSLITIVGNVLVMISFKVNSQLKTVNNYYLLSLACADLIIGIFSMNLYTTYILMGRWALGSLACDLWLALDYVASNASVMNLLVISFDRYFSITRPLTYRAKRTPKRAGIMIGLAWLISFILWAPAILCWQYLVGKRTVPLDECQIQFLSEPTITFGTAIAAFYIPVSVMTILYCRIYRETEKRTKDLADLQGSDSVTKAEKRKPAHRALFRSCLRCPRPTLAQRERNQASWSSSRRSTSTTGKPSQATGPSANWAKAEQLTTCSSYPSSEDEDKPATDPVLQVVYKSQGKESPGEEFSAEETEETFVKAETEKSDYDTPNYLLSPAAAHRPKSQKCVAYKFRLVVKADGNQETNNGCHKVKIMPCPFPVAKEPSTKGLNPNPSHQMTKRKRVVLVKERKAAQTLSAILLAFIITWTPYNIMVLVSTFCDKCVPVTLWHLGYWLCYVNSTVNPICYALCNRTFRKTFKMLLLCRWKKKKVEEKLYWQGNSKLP
Method: (§1) All tested compounds were purchased from Merck KGaA (Darmstadt, Germany). The radioligand binding experiments were performed with membranes from Chinese Hamster Ovary (CHO) cells stably transfected with the five cloned human muscarinic receptor subtypes (hM1-5). Membrane fractions were prepared according to the protocol, which have been previously described; membranes were stored at −80 °C until use. Nonspecific binding was defined by the radioactivity bound in the presence of 10 µM atropine.
(§2) Aliquots of membranes (25–70 µg/mL) were added and incubated for 2 h at room temperature, filtered through UniFilter GF/B plates (PerkinElmer Life and Analytical Science, Monza, Italy) using a FilterMate cell harvester (PerkinElmer Life and Analytical Science, Monza, Italy). The filters were washed several times with ice-cold MilliQ water. Then, the plates were counted in a β-counter (TopCount NXT microplate scintillation counter, PerkinElmer Life and Analytical Science, Monza, Italy).
(§3) Data points from radioligand inhibition binding curve were fitted to models using nonlinear regression equation to determine inhibitor potency (IC50) estimates, which were then converted to Ki values as appropriate.
(§4) All the results are expressed as means ± SEM obtained from 3-4 independent experiments each one performed in duplicate.

hM4 muscarinic receptor = target: T2, hM4 muscarinic receptor (Homo sapiens, UniProt P08173); assay: as above; settings: [3H]-NMS 0.2 nM, CHO membranes, mean ± SEM of 3-4 experiments; read-out: pKi hM4 (converted)
T2 construct: expressed in transfected cells; host or cells: CHO cells, stably transfected; membrane fractions
T2 sequence (P08173 1-479): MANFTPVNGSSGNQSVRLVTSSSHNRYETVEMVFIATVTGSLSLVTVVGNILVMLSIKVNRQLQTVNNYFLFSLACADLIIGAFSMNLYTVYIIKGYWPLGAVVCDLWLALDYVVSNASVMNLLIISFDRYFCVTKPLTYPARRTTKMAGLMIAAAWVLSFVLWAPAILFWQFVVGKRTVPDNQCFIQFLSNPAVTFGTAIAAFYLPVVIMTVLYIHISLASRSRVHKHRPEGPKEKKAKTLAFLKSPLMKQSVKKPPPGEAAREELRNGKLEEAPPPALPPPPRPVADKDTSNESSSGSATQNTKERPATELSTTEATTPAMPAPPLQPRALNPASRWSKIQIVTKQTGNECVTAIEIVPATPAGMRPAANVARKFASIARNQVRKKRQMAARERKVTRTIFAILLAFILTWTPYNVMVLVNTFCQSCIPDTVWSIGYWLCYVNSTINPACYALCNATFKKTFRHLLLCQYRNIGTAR
Method: as §1, §2, §3, §4

[2] = target: five human muscarinic receptors subtypes (hM1–hM5); assay: Equilibrium binding, summary statements over the five subtypes
Method: as §1, §2, §3, §4

hM3 muscarinic receptor = target: T3, hM3 muscarinic receptor (Homo sapiens, UniProt P20309); assay: Equilibrium inhibition binding with [3H]-NMS, CHO cell membranes; settings: [3H]-NMS 0.2 nM, mean ± SEM of 3-4 experiments, read-out: pKi hM3 (converted)
T3 construct: expressed in transfected cells; host or cells: CHO cells, stably transfected; membrane fractions
T3 sequence (P20309 whole entry): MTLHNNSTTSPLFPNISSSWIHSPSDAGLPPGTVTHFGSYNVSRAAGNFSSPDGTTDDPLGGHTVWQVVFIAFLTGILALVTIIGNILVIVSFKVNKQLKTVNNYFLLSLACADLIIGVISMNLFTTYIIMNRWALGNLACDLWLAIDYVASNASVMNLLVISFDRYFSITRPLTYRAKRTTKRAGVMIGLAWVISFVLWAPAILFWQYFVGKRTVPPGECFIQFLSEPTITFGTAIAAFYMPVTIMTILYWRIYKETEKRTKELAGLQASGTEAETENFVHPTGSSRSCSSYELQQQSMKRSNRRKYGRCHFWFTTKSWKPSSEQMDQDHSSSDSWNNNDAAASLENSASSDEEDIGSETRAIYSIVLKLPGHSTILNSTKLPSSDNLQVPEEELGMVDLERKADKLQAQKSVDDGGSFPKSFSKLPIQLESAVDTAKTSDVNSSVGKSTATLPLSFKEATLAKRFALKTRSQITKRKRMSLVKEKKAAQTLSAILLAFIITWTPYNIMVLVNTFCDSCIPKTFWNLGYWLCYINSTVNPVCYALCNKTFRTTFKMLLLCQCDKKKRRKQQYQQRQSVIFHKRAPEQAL
Method: as §1, §2, §3, §4

hM1 muscarinic receptor = target: T4, hM1 muscarinic receptor (Homo sapiens, UniProt P11229); assay: as above; settings: [3H]-NMS 0.2 nM, mean ± SEM of 3-4 experiments, read-out: pKi hM1 (converted)
T4 construct: expressed in transfected cells; host or cells: CHO cells, stably transfected; membrane fractions
T4 sequence (P11229 1-460): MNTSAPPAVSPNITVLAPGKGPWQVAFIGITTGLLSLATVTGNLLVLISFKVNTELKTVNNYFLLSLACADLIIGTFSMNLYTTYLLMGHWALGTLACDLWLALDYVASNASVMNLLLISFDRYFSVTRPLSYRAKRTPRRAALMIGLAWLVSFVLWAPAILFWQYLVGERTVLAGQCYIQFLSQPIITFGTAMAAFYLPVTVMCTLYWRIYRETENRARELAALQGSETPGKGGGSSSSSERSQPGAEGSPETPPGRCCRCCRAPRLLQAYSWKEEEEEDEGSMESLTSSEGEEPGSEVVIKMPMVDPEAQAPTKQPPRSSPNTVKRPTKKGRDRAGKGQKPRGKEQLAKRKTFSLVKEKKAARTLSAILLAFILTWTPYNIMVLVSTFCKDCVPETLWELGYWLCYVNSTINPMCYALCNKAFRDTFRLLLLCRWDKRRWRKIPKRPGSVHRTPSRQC
Method: as §1, §2, §3, §4

hM2 muscarinic receptor = target: T5, hM2 muscarinic receptor (Homo sapiens, UniProt P08172); assay: as above; settings: [3H]-NMS 0.2 nM, mean ± SEM of 3-4 experiments, read-out: pKi hM2 (converted)
T5 construct: expressed in transfected cells; host or cells: CHO cells, stably transfected; membrane fractions
T5 sequence (P08172 1-466): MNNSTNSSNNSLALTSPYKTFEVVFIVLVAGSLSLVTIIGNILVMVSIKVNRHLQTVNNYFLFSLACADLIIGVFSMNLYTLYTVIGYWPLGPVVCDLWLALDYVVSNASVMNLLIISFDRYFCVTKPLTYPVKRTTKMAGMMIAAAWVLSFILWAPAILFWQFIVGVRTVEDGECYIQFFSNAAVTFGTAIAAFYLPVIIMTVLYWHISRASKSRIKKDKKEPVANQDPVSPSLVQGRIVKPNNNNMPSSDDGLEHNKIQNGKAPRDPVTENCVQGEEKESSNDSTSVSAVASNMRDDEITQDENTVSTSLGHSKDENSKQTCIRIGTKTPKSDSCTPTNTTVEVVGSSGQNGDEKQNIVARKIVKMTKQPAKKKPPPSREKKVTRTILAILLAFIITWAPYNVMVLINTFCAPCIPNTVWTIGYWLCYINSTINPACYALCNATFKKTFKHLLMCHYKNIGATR
Method: as §1, §2, §3, §4

[3] = target: T6, [3H]-NMS-occupied muscarinic hM2 subtype (Homo sapiens, UniProt P08172); assay: One point kinetic (off-rate) assay of [3H]-NMS dissociation; format: binding; settings: read-out: Log Kocc hM2 (converted)
T6 construct: expressed in transfected cells; host or cells: CHO cells, stably transfected; membrane fractions
T6 sequence (P08172 1-466): T5 sequence (P08172 1-466)
Method: as §1
Off-rate assays were performed as described elsewhere to estimate the affinity of the ligands for the [^3H]-NMS-occupied receptor (log Kocc). Briefly, a high concentration of membranes (about 0.1 mg/mL) was incubated with a high concentration of [^3H]-NMS (2 nM) for 60 min at room temperature (mix membrane). Next, 100 µL aliquots were distributed into polypropylene tubes that were empty or in a final volume of 1 mL binding buffer with 1 µM atropine alone and in the presence of a range of concentrations of tested compound (1 nM–0.1 mM).
The effect on the radioligand dissociation of each tested ligand was determined at 0 min and at one time point, which was chosen to be ca 2.5 dissociation half-lives of [^3H]-NMS alone from each subtype receptors. Later (80 min for hM1, 20 min for hM2 and 70 min for hM5), the samples were filtered and counted as previously reported. Non specific binding was measured as previously reported.
as §4

SMILES	logP [1]	also measured
CC(C)(C)C(=O)OCOP(=O)(COCCn1cnc2c(N)ncnc21)OCOC(=O)C(C)(C)C [adefovir dipivoxil]	1.5	–
COCCCOc1cc(C[C@@H](C[C@H](N)[C@@H](O)C[C@H](C(=O)NCC(C)(C)C(N)=O)C(C)C)C(C)C)ccc1OC [aliskiren]	3.3	Ki (hM5 muscarinic receptor): > 100 µM; Ki (hM4 muscarinic receptor): > 100 µM; pKi values (muscarinic subtypes overall) [2]: devoid of affinity for all muscarinic receptors
C=CCNc1nc(NCC=C)nc(N2CCN(C(c3ccc(F)cc3)c3ccc(F)cc3)CC2)n1 [almitrine]	4.1	–
CC[N+](CC)(CCNC(=O)C(=O)NCC[N+](CC)(CC)Cc1ccccc1Cl)Cc1ccccc1Cl [ambenonium]	2.3	–
CC(C)COCC(CN(Cc1ccccc1)c1ccccc1)N1CCCC1 (stereo not drawn) [bepridil]	5.2	–
CCNC(=O)CCC/C=C\C[C@@H]1[C@@H](/C=C/[C@@H](O)CCc2ccccc2)[C@H](O)C[C@@H]1O [bimatoprost]	3.4	–
COc1ccccc1OCCNCC(O)COc1cccc2[nH]c3ccccc3c12 (stereo not drawn) [carvedilol]	3.1	–
CC(=O)N(O)CCCCCNC(=O)CCC(=O)N(O)CCCCCNC(=O)CCC(=O)N(O)CCCCCN [deferoxamine]	0.9	–
CN(CCCCCCCCCCN(C)C(=O)Oc1cccc([N+](C)(C)C)c1)C(=O)Oc1cccc([N+](C)(C)C)c1 [demecarium]	0.6	–
N=C(N)c1ccc(/N=N/Nc2ccc(C(=N)N)cc2)cc1 [diminazene]	–	Ki (hM3 muscarinic receptor): 4.79 µM; Ki (hM5 muscarinic receptor): 4.79 µM; Ki (hM1 muscarinic receptor): 3.16 µM; Ki (hM4 muscarinic receptor): 8.91 µM; Ki (hM2 muscarinic receptor): 5.62 µM; Kd [3]: 155 µM; pKi values (muscarinic subtypes overall) [2]: around 5
CCCCC[C@H](O)/C=C/[C@H]1[C@H](O)CC(=O)[C@@H]1C/C=C\CCCC(=O)O [dinoprostone]	2.8	–
CC[N+](CC)(CC)CCOc1cccc(OCC[N+](CC)(CC)CC)c1OCC[N+](CC)(CC)CC [gallamine]	–	Ki (hM5 muscarinic receptor): 2.19 µM; Ki (hM4 muscarinic receptor): 0.794 µM
C[N+](C)(CCCCCC[N+](C)(C)C1c2ccccc2-c2ccccc21)C1c2ccccc2-c2ccccc21 [hexafluronium]	1.8	–
CC#CCC(C)[C@H](O)/C=C/[C@@H]1[C@H]2C/C(=C/CCCC(=O)O)C[C@H]2C[C@H]1O (stereo partly drawn) [iloprost]	4.2	–
